Experimental data reported in patent US4963569A, “L-654,040, antibacterial agent” (Merck & Co., Inc., priority 1989, dated 1990).
Entries after “also recorded” stand apart in the source; their conditions may differ.

How the values were obtained:
[1] = tested on: Bordetella bronchiseptica (3771); assay: In vivo efficacy in infected mice
[2] = tested on: Pasteurella multocida (4678); assay: In vivo efficacy in infected mice
E. coli DC2 4353 = assay: Agar dilution MIC, antagonist-free medium (Table II); conditions: E. coli permeability mutant
Solubility in water = assay type: physicochemical; conditions: solutions in water for dosing
Staph. aureus 2865 = assay: Agar dilution MIC, antagonist-free medium (Table II); conditions: Staphylococcus aureus 2865, agar dilution
[3] = tested on: Pasteurella multocida (4678); assay: Combined therapy with erythromycin in infected mice; conditions: L-654,040 combined with erythromycin, intraperitoneal
[4] = 160 mg/kg×2 intraperitoneal, 0 and 6 hours after infection

In the case of `C[C@H](CNC(=O)[C@H]1N=C(c2cccc(O)c2O)O[C@@H]1C)C(=O)N[C@@H]1CCCN(O)C1=O` [L-654,040, 2-(2,3-dihydroxyphenyl)-4,5-dihydro-N-[3-[(1-hydroxy-2-oxo-3(R)-piperidinyl)amino]-2(R)-methyl-3-oxopropyl]-5R-methyl-4S-oxazolecarboxamide], the survival time [1, 4] is reported as “prolongation of survival time was observed”, the “survival time (summary)” value ([1]; intraperitoneal) is reported as “did prolong the survival time” and the “statistical significance of prolongation of survival” value ([2]; 160 mg/kg×2 intraperitoneal) is reported as “statistically significant (0.025<p<0.05)”. The survival time [2, 4] was “prolongation of survival time was observed”, the “survival time (summary)” value ([2]; intraperitoneal) was “did prolong the survival time; also recorded: increases survival time” and the “statistical significance of prolonged survival (summary)” value ([2]; intraperitoneal, two Pasteurella tests) was “statistically significant at one level in two Pasteurella tests”. For the same compound, the sensitivity of strain (E. coli DC2 4353; agar dilution) was “sensitive”, the “relative activity, acetyl derivative vs parent compound” value (E. coli DC2 4353; from MIC) was “equal activity” and the “solubility (in words)” value (Solubility in water) was “limited solubility”. For the same compound, the sensitivity of strain (Staph. aureus 2865) was “sensitive”, the “effectiveness of combined therapy vs erythromycin alone” value [3] was “slightly more effective than erythromycin alone” and the synergism with erythromycin [3] was “not to a degree considered to be synergistic”.
